Measurements taken from patent US11357719B2, “Method for obtaining a diglycoside-enriched Armeria maritima extract, and use thereof in cosmetics” (BIOTECHMARINE, priority 2016, dated 2022).
Where “and” joins values, the source holds several entries; their conditions need not be identical. Equal entries are not always repeated.

Columns and labels:
purified collagenase = assay: Anti-collagenase activity, EnzCheck gelatinase/collagenase Assay Kit (cell-free, fluorimetry); format: biochemical, Clostridium Histolyticum; details: for Fluorescence: 2 h incubation at room temperature, blank subtracted; for Inhibition: relative to control group
Procedure: A purified collagenase is used and the degradation of its pro-fluorescent substrate is monitored by fluorimetry.
The anti-collagenase activity is evaluated using a commercially available kit (EnzCheck™ gelatinase/collagenase Assay Kit, Molecular Probes, reference E-12055).
This is a test based on a cell-free biochemical evaluation using a purified collagenase from a […] (Clostridium Histolyticum) and a purified gelatin from porcine skin, purified type I collagen from bovine skin or purified type IV collagen from human placenta. […] The increase in the fluorescence is proportional to the MMP activity. A decrease in this fluorescence is expected in the presence of anti-MMP active agents. The test is validated using a reference anti-MMP inhibitor provided in the kit, 1,10-phenanthroline, tested at 0.01% and 0.001%.
The products are placed on a 96-well plate in the following manner:
The products are left to incubate for two hours at room temperature in darkness, then the fluorescence is determined (Excitation 495 nm; Emission: 515 nm). Each test is repeated three times. For each sample, the values are subtracted from the blank test. The percentage inhibition corresponds to the ratio of the mean of the collagenase activity obtained for each extract to the mean of the collagenase activity of the control group.

normal human fibroblasts = assay: Phototoxicity evaluation based on OECD test no. 432 (in vitro 3T3 NRU phototoxicity test), MTT viability; format: cell-based
Procedure: This evaluation is carried out based on the experimental conditions of test no. 432, entitled “in vitro 3T3 NRU phototoxicity test” from the OECD guidelines for testing chemicals, regarding conditions related to culture kinetics and to the acceptable dosage limit for Chlopromazine (CPZ). This guideline describes a method for evaluating photo-cytotoxicity by the relative reduction in the viability of the cells exposed to the chemical product in the presence or absence of light.
A pool of normal human fibroblasts of Caucasian type is used and amplified for five days in a 75 cm^2 flask in specific culture medium containing 10% FBS*. The cells are then seeded in culture wells of a 96-well plate (4 wells/condition), at 10 000 cells/well, in 200 μl of specific culture medium containing 10% FBS (Fetal Bovine Serum). 24 h after seeding, the cells are treated with the products for the test, prepared in EBSS (Earle's balance salt Solution) for one hour. At the end of this incubation, the cells are exposed (+irr) or not exposed (−irr) to a dose of 1 J/cm^2 of UVA, in the presence of the products being tested. At the end of this exposure, the cell layers are rinsed then brought back into contact with specific culture medium containing 2% of FBS. 24 h after this change, the cell viability is evaluated using the MTT method (colorimetric assay, visualized at 540 nm). The results are expressed as percentage viability relative to the control. The following parameters are deduced therefrom:
EC50: Concentration of active agent inducing 50% toxicity (−irr) or phototoxicity (+irr)
PIF (photo-irradiation factor): EC50(−irr)/EC50(+irr)
2<PIF<5: Probable phototoxicity

| SMILES | Fluorescence (purified collagenase; product at 0.001%) | Inhibition (purified collagenase; product at 0.001%) | Fluorescence (purified collagenase; product at 0.01%) | Inhibition (purified collagenase; product at 0.01%) [%] | PIF (photo-irradiation factor): EC50(−irr)/EC50(+irr) (normal human fibroblasts; PIF<2 no phototoxicity, 2<PIF<5 probable phototoxicity, PIF>5 phototoxicity) | EC50(+irr): concentration of active agent inducing 50% phototoxicity (normal human fibroblasts; exposed to 1 J/cm^2 of UVA, MTT viability 24 h after) | EC50(−irr): concentration of active agent inducing 50% toxicity (normal human fibroblasts; not exposed to UVA, MTT viability 24 h after) |
| --- | --- | --- | --- | --- | --- | --- | --- |
| c1cnc2c(c1)ccc1cccnc12 [1,10-phenanthroline] | 37.13 AU and 24.41 AU | 66% and 76% | 0.91 AU and 1.07 AU | 99 | – | – | – |
| CN(C)CCCN1c2ccccc2Sc2ccc(Cl)cc21 [CPZ, Chlopromazine] | – | – | – | – | 89.2 | 0.25 | 22.30 |
